Data: ChEMBL document CHEMBL1201862, “PubChem BioAssay data set” (2004)
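How tested: cells in 96-well plates exposed to compound for 48 hours at five concentrations. GI50: concentration for 50% inhibition of growth.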 Calls of active or inactive are those of the source. Rule as the data show it: active = GI50 up to about 1.1 µM and inactive = higher.

Legend:
Assay in all cases: NCI tumour cell line growth inhibition, 48 h
786-0 = test system: 786-0
A549 = test system: A549
ACHN = test system: ACHN
CCRF-CEM = test system: CCRF-CEM
COLO 205 = test system: COLO 205
DLD-1 = test system: DLD-1
DMS-114 = test system: DMS-114
EKVX = test system: EKVX
HCT-116 = test system: HCT-116
HCT-15 = test system: HCT-15
HL-60 = test system: HL-60
HOP-18 = test system: HOP-18
HOP-62 = test system: HOP-62
HOP-92 = test system: HOP-92
HT-29 = test system: HT-29
IGROV-1 = test system: IGROV-1
K562 = test system: K562
KM-20L2 = test system: KM-20L2
KM12 = test system: KM12
LOX IMVI = test system: LOX IMVI
LXFL 529 = test system: LXFL 529
M14 = test system: M14
M19-MEL = test system: M19-MEL
MOLT-4 = test system: MOLT-4
NCI-H226 = test system: NCI-H226
NCI-H23 = test system: NCI-H23
NCI-H460 = test system: NCI-H460
OVCAR-3 = test system: OVCAR-3
OVCAR-5 = test system: OVCAR-5
OVCAR-8 = test system: OVCAR-8
RXF 393 = test system: RXF 393
RXF 631 = test system: RXF 631
SF-268 = test system: SF-268
SF-295 = test system: SF-295
SF-539 = test system: SF-539
SK-MEL-28 = test system: SK-MEL-28
SK-MEL-2 = test system: SK-MEL-2
SK-OV-3 = test system: SK-OV-3
SNB-19 = test system: SNB-19
SNB-78 = test system: SNB-78
SR = test system: SR
SW-620 = test system: SW-620
TK-10 = test system: TK-10
U-251 = test system: U-251
UACC-257 = test system: UACC-257
UACC-62 = test system: UACC-62
UO-31 = test system: UO-31
A498 = test system: A498
CAKI-1 = test system: CAKI-1
DMS-273 = test system: DMS-273
HCC 2998 = test system: HCC 2998
Malme-3M = test system: Malme-3M
NCI-H522 = test system: NCI-H522
OVCAR-4 = test system: OVCAR-4
RPMI-8226 = test system: RPMI-8226
SK-MEL-5 = test system: SK-MEL-5
SN12C = test system: SN12C
SNB-75 = test system: SNB-75

With `CCc1cc(CCC(=O)Nc2ccccc2[N+](=O)[O-])nc(S)n1` the GI50 (786-0) was > 100 µM (inactive), the GI50 (A549) was > 100 µM (inactive) and the GI50 (ACHN) was > 100 µM (inactive). For the same compound, the GI50 (CCRF-CEM) was > 100 µM (inactive), the GI50 (COLO 205) was > 100 µM (inactive) and the GI50 (DLD-1) was > 100 µM (inactive). The GI50 (DMS-114) was > 100 µM (inactive), the GI50 (EKVX) was > 100 µM (inactive) and the GI50 (HCT-116) was > 100 µM (inactive). For the same compound, the GI50 (HCT-15) was > 100 µM, the GI50 (HL-60) was > 100 µM (inactive) and the GI50 (HOP-18) was > 100 µM (inactive). The GI50 (HOP-62) was > 100 µM (inactive), the GI50 (HOP-92) was > 100 µM (inactive) and the GI50 (HT-29) was > 100 µM (inactive). For the same compound, the GI50 (IGROV-1) was > 100 µM (inactive), the GI50 (K562) was > 100 µM (inactive) and the GI50 (KM-20L2) was > 100 µM (inactive). The GI50 (KM12) was > 100 µM (inactive), the GI50 (LOX IMVI) was > 100 µM (inactive) and the GI50 (LXFL 529) was > 100 µM (inactive). The GI50 (M14) was > 100 µM (inactive), the GI50 (M19-MEL) was > 100 µM (inactive) and the GI50 (MOLT-4) was > 100 µM (inactive). For the same compound, the GI50 (NCI-H226) was > 100 µM (inactive), the GI50 (NCI-H23) was > 100 µM (inactive) and the GI50 (NCI-H460) was > 100 µM (inactive). For the same compound, the GI50 (OVCAR-3) was > 100 µM (inactive), the GI50 (OVCAR-5) was > 100 µM (inactive) and the GI50 (OVCAR-8) was > 100 µM (inactive). For the same compound, the GI50 (RXF 393) was > 100 µM (inactive), the GI50 (RXF 631) was > 100 µM (inactive) and the GI50 (SF-268) was > 100 µM (inactive). For the same compound, the GI50 (SF-295) was > 100 µM (inactive), the GI50 (SF-539) was > 100 µM (inactive) and the GI50 (SK-MEL-28) was > 100 µM (inactive). The GI50 (SK-MEL-2) was > 100 µM (inactive), the GI50 (SK-OV-3) was > 100 µM (inactive) and the GI50 (SNB-19) was > 100 µM (inactive). The GI50 (SNB-78) was > 100 µM (inactive), the GI50 (SR) was > 100 µM (inactive) and the GI50 (SW-620) was > 100 µM (inactive). For the same compound, the GI50 (TK-10) was > 100 µM (inactive), the GI50 (U-251) was > 100 µM (inactive) and the GI50 (UACC-257) was > 100 µM (inactive). For the same compound, the GI50 (UACC-62) was > 100 µM (inactive) and the GI50 (UO-31) was > 100 µM (inactive).

`CCOC(=O)C(C)(NC(=O)c1ccc(NCc2ccc3nc(NC(=O)c4ccccc4)nc(NC(=O)c4ccccc4)c3c2)cc1)C(=O)OCC` was tested, and the GI50 (786-0) was 3.19 µM (inactive), the GI50 (A498) was 9.35 µM (inactive) and the GI50 (A549) was 12.2 µM (inactive). For the same compound, the GI50 (ACHN) was 8.17 µM (inactive), the GI50 (CAKI-1) was 8.02 µM (inactive) and the GI50 (COLO 205) was 40.4 µM (inactive). The GI50 (DLD-1) was 15.6 µM (inactive), the GI50 (DMS-114) was 16.8 µM (inactive) and the GI50 (DMS-273) was 9.23 µM (inactive). For the same compound, the GI50 (EKVX) was 19 µM (inactive), the GI50 (HCC 2998) was 25.8 µM (inactive) and the GI50 (HCT-116) was 6.97 µM (inactive). The GI50 (HCT-15) was 24.4 µM, the GI50 (HL-60) was > 100 µM (inactive) and the GI50 (HOP-18) was 37.8 µM (inactive). For the same compound, the GI50 (HOP-62) was 16.6 µM (inactive), the GI50 (HOP-92) was 5.62 µM (inactive) and the GI50 (HT-29) was 13.3 µM (inactive). The GI50 (IGROV-1) was 19.9 µM (inactive), the GI50 (KM-20L2) was 18.4 µM (inactive) and the GI50 (LOX IMVI) was 13.6 µM (inactive). The GI50 (M14) was 13 µM (inactive), the GI50 (M19-MEL) was 8.93 µM (inactive) and the GI50 (MOLT-4) was 26.6 µM (inactive). For the same compound, the GI50 (Malme-3M) was 15 µM (inactive), the GI50 (NCI-H226) was 10.1 µM (inactive) and the GI50 (NCI-H23) was 9.86 µM (inactive). The GI50 (NCI-H460) was 14.5 µM (inactive), the GI50 (NCI-H522) was 13.4 µM (inactive) and the GI50 (OVCAR-3) was 5.64 µM (inactive). For the same compound, the GI50 (OVCAR-4) was 2.09 µM (inactive), the GI50 (OVCAR-5) was > 100 µM (inactive) and the GI50 (OVCAR-8) was 4.68 µM (inactive). For the same compound, the GI50 (RPMI-8226) was 18.3 µM (inactive), the GI50 (RXF 393) was 2.39 µM (inactive) and the GI50 (RXF 631) was 12.2 µM (inactive). For the same compound, the GI50 (SF-268) was 8.99 µM (inactive), the GI50 (SF-295) was 6.79 µM (inactive) and the GI50 (SF-539) was 3.51 µM (inactive). For the same compound, the GI50 (SK-MEL-28) was 8.18 µM (inactive), the GI50 (SK-MEL-2) was 14.1 µM (inactive) and the GI50 (SK-MEL-5) was 7.28 µM (inactive). The GI50 (SK-OV-3) was 12.5 µM (inactive), the GI50 (SN12C) was 11.4 µM (inactive) and the GI50 (SNB-75) was 3.4 µM (inactive). For the same compound, the GI50 (SNB-78) was 9.23 µM (inactive), the GI50 (SR) was 34.9 µM (inactive) and the GI50 (SW-620) was 11.7 µM (inactive). The GI50 (TK-10) was 19.9 µM (inactive), the GI50 (U-251) was 7.11 µM (inactive) and the GI50 (UACC-257) was 13.5 µM (inactive). For the same compound, the GI50 (UACC-62) was 8.49 µM (inactive) and the GI50 (UO-31) was 18.1 µM (inactive).

With `COc1ccc(/C(Cl)=C(\C=O)c2ccc(F)cc2)cc1` the GI50 (A498) was 17.4 µM (inactive), the GI50 (ACHN) was 6.14 µM (inactive) and the GI50 (CAKI-1) was 8.18 µM (inactive). For the same compound, the GI50 (CCRF-CEM) was 3.14 µM (inactive), the GI50 (COLO 205) was 16.6 µM (inactive) and the GI50 (DLD-1) was 8.17 µM (inactive). For the same compound, the GI50 (DMS-114) was 7.55 µM (inactive), the GI50 (DMS-273) was 14.9 µM (inactive) and the GI50 (EKVX) was 16.9 µM (inactive). For the same compound, the GI50 (HCT-116) was 5.08 µM (inactive), the GI50 (HCT-15) was 4.24 µM and the GI50 (HL-60) was 2.72 µM (inactive). The GI50 (HOP-18) was 6.58 µM (inactive), the GI50 (HOP-62) was 9.59 µM (inactive) and the GI50 (HOP-92) was 4.29 µM (inactive). For the same compound, the GI50 (HT-29) was 7.41 µM (inactive), the GI50 (IGROV-1) was 18.9 µM (inactive) and the GI50 (K562) was 4.78 µM (inactive). The GI50 (KM-20L2) was 6.87 µM (inactive), the GI50 (LOX IMVI) was 7.03 µM (inactive) and the GI50 (LXFL 529) was 6.27 µM (inactive). For the same compound, the GI50 (M14) was 12.9 µM (inactive), the GI50 (M19-MEL) was 15 µM (inactive) and the GI50 (MOLT-4) was 3.56 µM (inactive). For the same compound, the GI50 (Malme-3M) was 13.7 µM (inactive), the GI50 (NCI-H226) was 11.7 µM (inactive) and the GI50 (NCI-H23) was 14.8 µM (inactive). For the same compound, the GI50 (NCI-H460) was 4.46 µM (inactive), the GI50 (NCI-H522) was 4.06 µM (inactive) and the GI50 (OVCAR-3) was 19.1 µM (inactive). For the same compound, the GI50 (OVCAR-8) was 10.8 µM (inactive), the GI50 (RPMI-8226) was 4.49 µM (inactive) and the GI50 (RXF 631) was 19.8 µM (inactive). The GI50 (SF-268) was 8.36 µM (inactive), the GI50 (SF-295) was 8.43 µM (inactive) and the GI50 (SF-539) was 15.5 µM (inactive). The GI50 (SK-MEL-28) was 16.7 µM (inactive), the GI50 (SK-MEL-2) was 8.83 µM (inactive) and the GI50 (SK-MEL-5) was 9.06 µM (inactive). For the same compound, the GI50 (SK-OV-3) was 40 µM (inactive), the GI50 (SN12C) was 9.98 µM (inactive) and the GI50 (SNB-19) was 17.9 µM (inactive). The GI50 (SNB-75) was 2.27 µM (inactive), the GI50 (SNB-78) was 7.53 µM (inactive) and the GI50 (SW-620) was 6.81 µM (inactive). The GI50 (TK-10) was 33.1 µM (inactive), the GI50 (U-251) was 6.58 µM (inactive) and the GI50 (UACC-62) was 9.08 µM (inactive). The GI50 (UO-31) was 8.15 µM (inactive).
